The compounds below were run on C57BL/6J mice (assay: Glucokinase activator in vivo screen, blood glucose after oral gavage in lean and diet induced obese mice). Settings: Mus musculus; vs control at 2 hours post 25 mg/kg oral dose, C57B6 mice; read-out: % gluc lowering @ 2 H.
Protocol: Glucokinase Activator in vivo Screen Protocol in Lean and Diet Induced Obese Mice: Lean or Diet-Induced Obese (DIO) C57BL/6J mice were orally dosed via gavage with Glucokinase (GK) activator following a two hour fasting period. Blood glucose determinations were made at various (e.g. 0, 1, 2, 4 and 8 hours post-oral gavage) times during the study.
C57Bl/6J mice were obtained from Jackson Laboratory (Bar Harbor, Me.) and were maintained in a light-dark cycle with lights on from 0600-1800 hr. For studies in lean mice, the mice were received at age ten weeks and given ad libitum access to control diet (LabDiet 5001 chow, PMI Nutrition, Brentwood, Mo.), and were at least age 11 weeks at the time of study. For studies in the DIO model, the mice were received at age five weeks and given ad libitum access to Bio-Sery F3282 High Fat Diet (Frenchtown, N.J.), and were at least age 16 weeks at the time of study. The experiments were conducted during the light phase of the light-dark cycle. Mice (n=6) are weighed and fasted for a two hour period prior to oral treatment. GK activators are formulated in Gelucire vehicle (Ethanol:Gelucire44/14:PEG400q.s. 4:66:30 v/w/v. For studies in lean mice, the mice were dosed orally with 5.04 per gram of body weight (i.e. 5 ml/kg×10.0 mg/ml formulation to equal a 50 mg/kg dose). For studies in DIO mice, the mice were dosed orally with 5.04 per gram of body weight (i.e. 5.0 ml/kg×5 mg/ml formulation to equal a 25 mg/kg dose). Immediately prior to dosing, a pre-dose (time zero) blood glucose reading was acquired by snipping off a small portion of the animal's tail and collecting […] blood into a heparinized capillary tube for analysis. Following GK activator administration, additional blood glucose readings were taken at various time points post dose from the same tail wound. Results were interpreted by comparing the mean blood glucose values of vehicle treated mice with GK activator treated mice over the study period.
The Table below provides data for % glucose lowering of a representative number of compounds of the present invention vs control at 2 hours post 25 or 50 mg/kg dose in C57B6 mice: […]

SMILES | change in vivo at 25 mg/kg [%]
COCCOc1cnc2[nH]c([C@H](CC3CCCC3)c3ccc(S(C)(=O)=O)cc3)cc2c1 (single isomer, unassigned) [Example 16] | -31.3

The compounds below were run against T1, Recombinant human liver GK1 (GST-GK) (Homo sapiens, UniProt P35557) (assay: In vitro glucokinase activity assay (G6PDH-coupled, NADH, OD340)). Settings: at 30 μM.
T1 construct: made in house; host or cells: E. coli
T1 sequence (P35557 1-466 isoform P35557-2): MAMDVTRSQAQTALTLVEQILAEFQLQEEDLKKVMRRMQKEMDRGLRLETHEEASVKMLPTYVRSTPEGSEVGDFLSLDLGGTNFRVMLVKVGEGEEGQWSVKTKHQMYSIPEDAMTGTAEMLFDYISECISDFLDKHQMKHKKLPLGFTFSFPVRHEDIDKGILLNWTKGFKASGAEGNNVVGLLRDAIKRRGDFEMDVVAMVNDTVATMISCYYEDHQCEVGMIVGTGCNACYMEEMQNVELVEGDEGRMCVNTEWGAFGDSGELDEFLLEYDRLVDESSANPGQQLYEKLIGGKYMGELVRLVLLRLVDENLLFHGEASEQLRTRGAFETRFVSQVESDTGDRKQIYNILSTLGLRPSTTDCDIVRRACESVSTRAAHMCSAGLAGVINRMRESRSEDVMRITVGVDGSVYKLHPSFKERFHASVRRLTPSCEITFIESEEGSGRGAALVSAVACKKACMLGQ
Format: biochemical
Outline: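 GST-fused human liver GK1 from E. coli, run at 30° C. in pH 7.1 HEPES with 5 mM glucose, 1 mM ATP and 10% DMSO, coupled via G6PDH to NADH. OD340 rate measured after enzyme start; SC1.5 is the activator concentration raising activity 50% over DMSO control.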

SMILES | fold activation of GK [fold at 30]
CCS(=O)(=O)c1cnc2[nH]c(C(CC3CCCC3)c3ccc(S(C)(=O)=O)cc3)cc2c1 (centres unmarked) [Example 125, 2-[2-Cyclopentyl-1-(4-methanesulfonyl-phenyl)-ethyl]-5-ethanesulfonyl-1H-pyrrolo[2,3-b]pyridine] | 1.4

Same assay, conditions: concentration of activator that produced a 50% increase in the activity of GK; 5 mM D-glucose, 30° C.

SMILES | SC1.5 [µM]
COCCOc1cnc2[nH]c([C@H](CC3CCCC3)c3ccc(S(C)(=O)=O)cc3)cc2c1 (single isomer, unassigned) [Example 16] | 0.21
CC(C)(O)c1ccc(C(CC2CCCC2)c2cc3cccnc3[nH]2)c(F)c1 (centres unmarked) [Example 94, 2-{4-[2-Cyclopentyl-1-(1H-pyrrolo[2,3-b]pyridin-2-yl)-ethyl]-3-fluoro-phenyl}-propan-2-ol] | 2.3
CC(C)(O)c1ccc(C(CC2CCOCC2)c2cc3cc(F)cnc3[nH]2)cc1F (centres unmarked) [Example 97, 2-{2-Fluoro-4-[1-(5-fluoro-1H-pyrrolo[2,3-b]pyridin-2-yl)-2-(tetrahydro-pyran-4-yl)-ethyl]-phenyl}-propan-2-ol] | 2.2
CC(C)CC(c1ccc(S(C)(=O)=O)cc1)c1cc2cc(F)cnc2[nH]1 (centres unmarked) [Example 99, 5-Fluoro-2-[1-(4-methanesulfonyl-phenyl)-3-methyl-butyl]-1H-pyrrolo[2,3-b]pyridine] | 0.394
CC(C)CC(c1ccc(S(=O)(=O)CCO)cc1)c1cc2cc(F)cnc2[nH]1 (centres unmarked) [Example 101] | 0.854
CC(C)(O)c1ccc(C(CC2CCCC2)c2cc3cc(F)cnc3[nH]2)cc1F (centres unmarked) [Example 103, 2-{4-[2-Cyclopentyl-1-(5-fluoro-1H-pyrrolo[2,3-b]pyridin-2-yl)-ethyl]-2-fluoro-phenyl}-propan-2-ol] | 0.18
CC(C)CC(c1ccc(C(C)(C)O)c(F)c1)c1cc2cc(F)cnc2[nH]1 (centres unmarked) [Example 105, 2-{2-Fluoro-4-[1-(5-fluoro-1H-pyrrolo[2,3-b]pyridin-2-yl)-3-methyl-butyl]-phenyl}-propan-2-ol] | 0.368
CN(C)CC(=O)Nc1cnc2[nH]c(C(CC3CCCC3)c3ccc(S(C)(=O)=O)cc3)cc2c1 (centres unmarked) [Example 107, N-{2-[2-Cyclopentyl-1-(4-methanesulfonyl-phenyl)-ethyl]-1H-pyrrolo[2,3-b]pyridin-5-yl}-2-dimethylamino-acetamide] | 9.4
CCOc1ccc(C(CC2CCCC2)c2cc3cccnc3[nH]2)cn1 (centres unmarked) [Example 108, 2-[2-Cyclopentyl-1-(6-ethoxy-pyridin-3-yl)-ethyl]-1H-pyrrolo[2,3-b]pyridine] | 2.4
c1cncc(C(CC2CCCC2)c2cc3cccnc3[nH]2)c1 (centres unmarked) [Example 110, 2-(2-Cyclopentyl-1-pyridin-3-yl-ethyl)-1H-pyrrolo[2,3-b]pyridine] | 14.1
CS(=O)(=O)c1ccc(C(CC2CCCC2)c2cc3cc(Cl)cnc3[nH]2)cc1 (centres unmarked) [Example 111, 5-Chloro-2-[2-cyclopentyl-1-(4-methanesulfonyl-phenyl)-ethyl]-1H-pyrrolo[2,3-b]pyridine] | 0.15
CS(=O)(=O)c1ccc(C(CC2CCCC2)c2cc3cccnc3[nH]2)nc1 (centres unmarked) [Example 112, 2-[2-Cyclopentyl-1-(5-methanesulfonyl-pyridin-2-yl)-ethyl]-1H-pyrrolo[2,3-b]pyridine] | 0.587
COc1ccc2cc(C(CC3CCCC3)c3ccc(S(C)(=O)=O)cc3)[nH]c2n1 (centres unmarked) [Example 113, 2-[2-Cyclopentyl-1-(4-methanesulfonyl-phenyl)-ethyl]-6-methoxy-1H-pyrrolo[2,3-b]pyridine] | 1.8
CS(=O)(=O)c1ccc(C(CC2CCOCC2)c2cc3cc(Cl)cnc3[nH]2)cc1 (centres unmarked) [Example 114, 5-Chloro-2-[1-(4-methanesulfonyl-phenyl)-2-(tetrahydro-pyran-4-yl)-ethyl]-1H-pyrrolo[2,3-b]pyridine] | 2.2
CS(=O)(=O)c1ccc(C(O)(CC2CCC2)c2cc3cccnc3[nH]2)cc1 (centres unmarked) [Example 115, 2-Cyclobutyl-1-(4-methanesulfonyl-phenyl)-1-(1H-pyrrolo[2,3-]pyridin-2-yl)-ethanol] | 7.4
CS(=O)(=O)c1ccc(/C(=C\C2CCCC2)c2cc3cc(F)cnc3[nH]2)cc1 [Example 116, 2-[(E)-2-cyclopentyl-1-(4-methanesulfonyl-phenyl)-vinyl]-5-fluoro-1H-pyrrolo[2,3-b]pyridine] | 0.009
CS(=O)(=O)c1ccc(C(CC2CCCC2)c2cc3cc(F)cnc3[nH]2)cc1 (centres unmarked) [Example 117, 2-[2-Cyclopentyl-1-(4-methanesulfonyl-phenyl)-ethyl]-5-fluoro-1H-pyrrolo[2,3-b]pyridine] | 0.071
CC(C)(O)c1ccc(C(CC2CCCC2)c2cc3cc(F)cnc3[nH]2)cc1 (centres unmarked) [Example 119, 2-{4-[2-Cyclopentyl-1-(5-fluoro-1H-pyrrolo[2,3-b]pyridin-2-yl)-ethyl]-phenyl}-propan-2-ol] | 0.78
CC(C)c1ccc(C(CC2CCCC2)c2cc3cc(F)cnc3[nH]2)cc1 (centres unmarked) [Example 121, 2-[2-Cyclopentyl-1-(4-isopropyl-phenyl)-ethyl]-5-fluoro-1H-pyrrolo[2,3-b]pyridine] | 0.458
CS(=O)(=O)c1ccc(C(CC2CCOCC2)c2cc3cc(F)cnc3[nH]2)cc1 (centres unmarked) [Example 123, 5-Fluoro-2-[1-(4-methanesulfonyl-phenyl)-2-(tetrahydro-pyran-4-yl)-ethyl]-1H-pyrrolo[2,3-b]pyridine] | 0.47
CS(=O)(=O)c1ccc(C(CC2CCCC2)c2cc3cc(C(F)(F)F)cnc3[nH]2)cc1 (centres unmarked) [Example 126, 2-[2-Cyclopentyl-1-(4-methanesulfonyl-phenyl)-ethyl]-5-trifluoromethyl-1H-pyrrolo[2,3-b]pyridine] | 2.0
Cc1cnc2[nH]c(C(CC3CCCC3)c3ccc(S(C)(=O)=O)cc3)cc2c1 (centres unmarked) [Example 128, 2-[2-Cyclopentyl-1-(4-methanesulfonyl-phenyl)-ethyl]-5-methyl-1H-pyrrolo[2,3-b]pyridine] | 0.85
Cc1cccc(C(CC(C)C)c2cc3cccnc3[nH]2)c1 (centres unmarked) [Example 130, 2-(3-Methyl-1-m-tolyl-butyl)-1H-pyrrolo[2,3-b]pyridine] | 7.8
CC(C)CC(c1cccc(Cl)c1)c1cc2cccnc2[nH]1 (centres unmarked) [Example 131, 2-(1-(3-Chloro-phenyl)-3-methyl-butyl)-1H-pyrrolo[2,3-b]pyridine] | 9.9
CC(C)CC(c1cccc(F)c1)c1cc2cccnc2[nH]1 (centres unmarked) [Example 132, 2-(1-(3-Fluoro-phenyl)-3-methyl-butyl)-1H-pyrrolo[2,3-b]pyridine] | 10.9
CCOc1cccc(C(CC(C)C)c2cc3cccnc3[nH]2)c1 (centres unmarked) [Example 133, 2-(1-(3-Ethoxy-phenyl)-3-methyl-butyl)-1H-pyrrolo[2,3-b]pyridine] | 25.0
COc1cccc(C(CC(C)C)c2cc3cccnc3[nH]2)c1 (centres unmarked) [Example 134, 2-(1-(3-Methoxy-phenyl)-3-methyl-butyl)-1H-pyrrolo[2,3-b]pyridine] | 12.9
CC(=O)c1cccc(C(CC(C)C)c2cc3cccnc3[nH]2)c1 (centres unmarked) [Example 135, 1-{3-[3-Methyl-1-(1H-pyrrolo[2,3-b]pyridin-2-yl)-butyl]-phenyl}-ethanone] | 9.6
CC(C)CC(c1cccc(N(C)C)c1)c1cc2cccnc2[nH]1 (centres unmarked) [Example 136, N,N-Dimethyl-3-(3-methyl-1-(1H-pyrrolo[2,3-b]pyridine-2-yl)butyl)benzenamine] | 14.3
CC(C)CC(c1cccc(-n2cccn2)c1)c1cc2cccnc2[nH]1 (centres unmarked) [Example 137, 2-(1-(3-(1H-Pyrazol-1-yl)phenyl)-3-methylbutyl)-1H-pyrrolo[2,3-b]pyridine] | 15.2
